The values that follow come from the PolyMetriX glass transition set.

`*C(=O)Nc1ccc(-c2ccc(NC(=O)c3ccc4c(c3)C(=O)N(c3ccc(Oc5cccc6c(N7C(=O)c8ccc(*)cc8C7=O)cccc56)cc3)C4=O)c(OC)c2)cc1OC` (repeat unit) returned a glass transition temperature of 304.00 °C.
Consider `*C(=O)Nc1ccc(C2(c3ccc(N4C(=O)c5ccc(*)cc5C4=O)cc3)CC(C)CC(C)(C)C2)cc1` (repeat unit), for which the glass transition temperature is 328.00 °C.
The result for `*C(=O)Nc1ccc(C2(c3ccc(N4C(=O)c5ccc(*)cc5C4=O)cc3)CCC(C(C)(C)C)CC2)cc1` (repeat unit) reads 331.00 °C; that for `*C(=O)Nc1ccc(C2(c3ccc(N4C(=O)c5ccc(*)cc5C4=O)cc3)CCC(C(C)(C)CC)CC2)cc1` (repeat unit), 342.00 °C; that for `*C(=O)Nc1ccc(C2(c3ccc(N4C(=O)c5ccc(*)cc5C4=O)cc3)CCC(C)CC2)cc1` (repeat unit), 322.00 °C.
In the case of `*C(=O)Oc1ccc(C(C)(C)c2ccc(OC(=O)c3ccc4c(c3)C(=O)N(c3ccc(O)c(N5C(=O)c6ccc(*)cc6C5=O)c3)C4=O)cc2)cc1` (repeat unit), the glass transition temperature is 225.00 °C.
Take `*C(=O)Oc1ccc(C(C)(C)c2ccc(OC(=O)c3ccc4c(c3)C(=O)N(c3cccc(N5C(=O)c6ccc(*)cc6C5=O)c3)C4=O)cc2)cc1` (repeat unit): the glass transition temperature was 225.00 °C.
`*C(=O)c1ccc2c(c1)C(=O)N(c1cccc(Cc3ccc(Cc4ccc(Cc5cccc(N6C(=O)c7ccc(*)cc7C6=O)c5)cc4)cc3)c1)C2=O` (repeat unit): the glass transition temperature amounted to 235.50 °C.
`*C(=O)c1ccc2c(c1)C(=O)N(c1cccc(Nc3nc(Nc4cccc(N5C(=O)c6ccc(*)cc6C5=O)c4)nc(-c4ccccc4)n3)c1)C2=O` (repeat unit) yielded a glass transition temperature of 292.00 °C.
The result for `*C(=O)c1ccc2c(c1)C(=O)N(c1cccc(OP(=O)(Oc3cccc(N4C(=O)c5ccc(*)cc5C4=O)c3)c3ccccc3)c1)C2=O` (repeat unit) reads 176.50 °C; that for `*C/C=C/c1cc(C(C)(C)c2ccc(O)c(/C=C/CC3CC(=O)N(c4ccc(Cc5ccc(N6C(=O)CC(*)C6=O)cc5)cc4)C3=O)c2)ccc1O` (repeat unit), 206.00 °C.
The result for `*CCCCCCCCCCCC(=O)Oc1ccc(C(C)(C)c2ccc(C(C)(C)c3ccc(OC(=O)c4ccc5c(c4)C(=O)N(*)C5=O)cc3)cc2)cc1` (repeat unit) reads 97.00 °C; that for `*CCCOCCCCOCCCN1C(=O)c2ccc(C(=O)Oc3ccc(C(C)(C)c4ccc(OC(=O)c5ccc6c(c5)C(=O)N(*)C6=O)cc4)cc3)cc2C1=O` (repeat unit), 60.00 °C.
Consider `*CCN(CCOC(=O)Nc1ccc(-c2ccc(NC(=O)O*)c(C)c2)cc1C)c1ccc(/N=N/c2ccc([N+](=O)[O-])cc2)cc1` (repeat unit), for which the glass transition temperature worked out at 119.50 °C.
Consider `*Nc1ccc(-c2ccc(NC(=O)c3cccc(C(*)=O)c3)c(OC)c2)cc1OC` (repeat unit), for which the glass transition temperature is 218.20 °C.
The result for `*Nc1ccc(C(C)(C)c2ccc(C(C)(C)c3ccc(Nc4ccc(C(=O)c5ccc(C(=O)c6ccc(*)cc6)cc5)cc4)cc3)cc2)cc1` (repeat unit) reads 157.00 °C; that for `*Nc1ccc(C(C)(C)c2ccc(NC(=O)c3cc(C(*)=O)cc(N4C(=O)C=CC4=O)c3)cc2)cc1` (repeat unit), 303.00 °C; that for `*Nc1ccc(C(C)(C)c2ccc(NC(=O)c3cc(NC(=O)c4ccccc4)cc(C(*)=O)c3)cc2)cc1` (repeat unit), 303.50 °C.
The compound `*Nc1ccc(C(C)(C)c2ccc(NC(=O)c3cccc(C(*)=O)c3)cc2)cc1` (repeat unit) had a glass transition temperature of 279.00 °C.
Consider `*Nc1ccc(Nc2ccc(C(O)(c3ccccc3)c3ccc(C(O)(c4ccccc4)c4ccc(*)cc4)cc3)cc2)cc1` (repeat unit), for which the glass transition temperature worked out at 200.00 °C.
Regarding `*OC(=O)Oc1ccc(C(C)(C)c2ccc(OC(=O)OC3CC4CC(*)CC(C3)O4)cc2)cc1` (repeat unit), the glass transition temperature was determined as 194.00 °C.
On to `*OP(=O)(Oc1ccc(NC(=O)Oc2ccc(C(C)(C)c3ccc(OC(=O)Nc4ccc(*)cc4)cc3)cc2)cc1)c1ccccc1` (repeat unit), for which the glass transition temperature was 34.00 °C.
`*Oc1ccc(-c2ccc(OC(*)(Oc3ccccc3)Oc3ccccc3)c(C)c2)cc1C` (repeat unit) came in with a glass transition temperature of 125.00 °C.
In turn, `*Oc1ccc(C(C)(C)c2ccc(OC(*)=O)c(Cl)c2)cc1` (repeat unit) came in with a glass transition temperature of 146.00 °C.
The compound `*Oc1ccc(C(C)(C)c2ccc(OC(*)=O)c(Cl)c2)cc1C` (repeat unit) yielded a glass transition temperature of 138.00 °C.
Take `*Oc1ccc(C(C)(C)c2ccc(OC(*)=O)c(Cl)c2)cc1Cl` (repeat unit): the glass transition temperature was found to be 147.00 °C.
The compound `*Oc1ccc(C(C)(C)c2ccc(OC(=O)OC3C(C)(C)C(OC(*)=O)C3(C)C)cc2)cc1` (repeat unit) had a glass transition temperature of 130.00 °C.
`*Oc1ccc(C(C)(C)c2ccc(OC(=O)OCCCCOC(*)=O)cc2)cc1` (repeat unit) had a glass transition temperature of 56.50 °C.
On to `*Oc1ccc(C(C)(C)c2ccc(OC(=O)Oc3ccc(Cc4ccc(OC(*)=O)cc4)cc3)cc2)cc1` (repeat unit), for which the glass transition temperature is 107.80 °C.
The result for `*Oc1ccc(C(C)(C)c2ccc(OC(=O)SCCCSC(*)=O)cc2)cc1` (repeat unit) reads 90.00 °C; that for `*Oc1ccc(C(C)(C)c2ccc(OC(=O)Sc3ccc(C(C)(C)c4ccc(SC(*)=O)cc4)cc3)cc2)cc1` (repeat unit), 154.00 °C; that for `*Oc1ccc(C(C)(C)c2ccc(OC(=O)c3ccc(C(*)=O)cc3)c(C(C)C)c2)cc1C(C)C` (repeat unit), 140.00 °C.
`*Oc1ccc(C(C)(C)c2ccc(OC(=O)c3ccc(C(*)=O)cc3)c(C)c2)cc1C` (repeat unit): the glass transition temperature stood at 178.50 °C.
`*Oc1ccc(C(C)(C)c2ccc(OC(=O)c3ccc(C(*)=O)cc3)c(CCCC)c2)cc1CCCC` (repeat unit) had a glass transition temperature of 160.00 °C.
As to `*Oc1ccc(C(C)(C)c2ccc(OC(=O)c3ccc(C(*)=O)cc3)c(Cl)c2)cc1Cl` (repeat unit), the glass transition temperature turned out to be 190.00 °C.
As for `*Oc1ccc(C(C)(C)c2ccc(OC(=O)c3ccc(C(C)(C)c4ccc(C(*)=O)cc4)cc3)cc2)cc1` (repeat unit), the glass transition temperature came to 230.00 °C.
Take `*Oc1ccc(C(C)(C)c2ccc(OC(=O)c3ccc(Cc4ccc(C(*)=O)cc4)cc3)cc2)cc1` (repeat unit): the glass transition temperature was 205.00 °C.
With `*Oc1ccc(C(C)(C)c2ccc(OC(=O)c3ccc(OCCCCCCCCCCOc4ccc(C(*)=O)cc4)cc3)cc2)cc1` (repeat unit), the glass transition temperature was 77.00 °C.
Turning to `*Oc1ccc(C(C)(C)c2ccc(OC(=O)c3ccc(Oc4ccc(C(*)=O)cc4)cc3)cc2)cc1` (repeat unit), the glass transition temperature was 220.00 °C.
`*Oc1ccc(C(C)(CC(C)C)c2ccc(OC(*)=S)cc2)cc1` (repeat unit) came in with a glass transition temperature of 128.00 °C.
`*Oc1ccc(C(C)(CC)c2ccc(OC(*)=O)c(C)c2)cc1C` (repeat unit) registered a glass transition temperature of 119.00 °C.
The compound `*Oc1ccc(C(C)(CC)c2ccc(OC(*)=O)cc2)cc1` (repeat unit) showed a glass transition temperature of 136.00 °C.
Turning to `*Oc1ccc(C(C)(CC)c2ccc(OC(*)=S)cc2)cc1` (repeat unit), the glass transition temperature came to 102.00 °C.
With `*Oc1ccc(C(C)(CCC#N)c2ccc(OC(*)=O)c(C)c2)cc1C` (repeat unit), the glass transition temperature was determined as 117.00 °C.
Compound `*Oc1ccc(C(CC)(CC)c2ccc(OC(=O)c3ccc(C(*)=O)cc3)cc2)cc1` (repeat unit) yielded a glass transition temperature of 180.00 °C.
The result for `*Oc1ccc(C(CC)(c2ccccc2)c2ccc(OC(*)=O)cc2)cc1` (repeat unit) reads 147.00 °C; that for `*Oc1ccc(C(CCC)c2ccc(OC(*)=S)cc2)cc1` (repeat unit), 130.00 °C; that for `*Oc1ccc(C(c2ccc(OC(*)=O)cc2)C2C3CCC(C3)C2C)cc1` (repeat unit), 232.00 °C.
`*Oc1ccc(C2(c3ccc(OC(*)=O)cc3)CC(C)CC(C)(C)C2)cc1` (repeat unit): the glass transition temperature is 235.50 °C.
Turning to `*Oc1ccc(C2(c3ccc(OC(*)=O)cc3)c3cc(OC)ccc3-c3ccc([N+](=O)[O-])cc32)cc1` (repeat unit), the glass transition temperature was 294.00 °C.
As for `*Oc1ccc(C2(c3ccc(OC(=O)CCCCC(*)=O)cc3)c3cc(N(C)C)ccc3-c3ccc([N+](=O)[O-])cc32)cc1` (repeat unit), the glass transition temperature was 150.00 °C.
For the compound `*Oc1ccc(C2(c3ccc(OC(=O)OC4C(C)(C)C(OC(*)=O)C4(C)C)cc3)CCC(C(C)(C)C)CC2)cc1` (repeat unit), the glass transition temperature turned out to be 172.00 °C.
On to `*Oc1ccc(C2(c3ccc(OC(=O)c4cccc(C(*)=O)c4)c(C)c3)c3ccccc3-c3ccccc32)cc1C` (repeat unit), for which the glass transition temperature was 287.00 °C.
For the compound `*Oc1ccc2ccc(Oc3ccc(C(=O)Nc4ccc(C(C)(C)c5ccc(C(C)(C)c6ccc(NC(=O)c7ccc(*)cc7)cc6)cc5)cc4)cc3)cc2c1` (repeat unit), the glass transition temperature is 155.00 °C.
Turning to `*c1cc(/C=N/C(=S)Nc2ccc(-n3c(=O)c4cc5c(=O)n(*)c(=O)c5cc4c3=O)cc2)ccc1Cl` (repeat unit), the glass transition temperature was found to be 276.00 °C.
The result for `*c1ccc(N[Se]Nc2ccc(S(*)(=O)=O)cc2)cc1` (repeat unit) reads 62.00 °C.
As for `*c1ccc(Nc2ccc(Nc3ccc(S(*)(=O)=O)cc3)cc2)cc1` (repeat unit), the glass transition temperature was 145.00 °C.
`*c1ccc(Nc2cccc(Nc3ccc(S(*)(=O)=O)cc3)c2)cc1` (repeat unit) displayed a glass transition temperature of 145.00 °C.
`*c1ccc(OC(=O)c2cccc(C(=O)Oc3ccc(C4(*)NC(=O)c5ccccc54)cc3)c2)cc1` (repeat unit) displayed a glass transition temperature of 325.00 °C.
On to `*c1ccc(OC(=O)c2cccc(C(=O)Oc3ccc(C4(*)c5ccccc5C(=O)N4C)cc3)c2)cc1` (repeat unit), for which the glass transition temperature is 285.00 °C.
